# Residues, ends and D or L forms follow the SMILES beside them.
# System: primary human macrophages
# Test: Polynucleotide arrays of primary human macrophages treated with SEQ ID NO: 6 (Tables 27, 28)
# Assay type: cell-based
# Details: 50 μg/ml, 4 h
smiles,measurement,setting,value
CC[C@H](C)[C@H](NC(=O)[C@@H]1CCCN1C(=O)[C@H](CS)NC(=O)[C@H](CCCNC(=N)N)NC(=O)[C@@H](N)CC(C)C)C(=O)N[C@@H](C)C(=O)N1CCC[C@H]1C(=O)N[C@H](C(=O)N[C@H](C(=O)N1CCC[C@H]1C(=O)N[C@H](C(=O)N[C@@H](CS)C(=O)N[C@@H](CCCCN)C(=O)N[C@@H](CCCCN)C(=O)O)C(C)C)[C@@H](C)CC)C(C)C [SEQ ID NO: 6] (H-LRCPIAPVIPVCKK-OH; N-terminus and C-terminus assumed),"Ratio peptide treated:control, Unknown",A433612,5.0
same,"Ratio peptide treated:control, KIAA1278 protein",AB03104,2.9
same,"Ratio peptide treated:control, proteasome 26S subunit non-ATPase 13",AB009398,0.44
same,"Ratio peptide treated:control, KIAA0532 protein",AB011104,2.8
same,"Ratio peptide treated:control, KIAA0592 protein",AB011164,4.0
same,"Ratio peptide treated:control, IL-1 receptor-like 1",AB012701,0.35
same,"Ratio peptide treated:control, interferon alpha-inducible protein",AB019565,0.35
same,"Ratio peptide treated:control, KIAA0842 protein",AB020649,0.13
same,"Ratio peptide treated:control, KIAA0922 protein",AB023139,2.1
same,"Ratio peptide treated:control, KIAA1013 protein",AB023230,3.4
same,"Ratio peptide treated:control, protease, serine, 21",AB031331,2.0
same,"Ratio peptide treated:control, hypothetical protein FLJ20689",AB032978,2.9
same,"Ratio peptide treated:control, cofactor required for Sp1 transcriptional activation subunit 3",AB033042,0.23
same,"Ratio peptide treated:control, pancreatic zymogen granule membrane associated protein",AB035541,3.7
same,"Ratio peptide treated:control, Unknown",AB037838,0.14
same,"Ratio peptide treated:control, CDC14 homolog A",AF000367,3.8
same,"Ratio peptide treated:control, TNF receptor superfamily, member 10b",AF016266,0.37
same,"Ratio peptide treated:control, TNF superfamily, member 15",AF039390,0.46
same,"Ratio peptide treated:control, transcription factor 21",AF047419,5.4
same,"Ratio peptide treated:control, proteasome subunit alpha type, 7",AF054185,0.40
same,"Ratio peptide treated:control, Granulin",AF055008,0.14
same,"Ratio peptide treated:control, matrix metalloproteinase 23A",AF056200,2.7
same,"Ratio peptide treated:control, chromosome condensation 1-like",AF060219,4.8
same,"Ratio peptide treated:control, Unknown",AF068289,2.8
same,"Ratio peptide treated:control, histone fold proteinCHRAC17",AF070640,3.8
same,"Ratio peptide treated:control, NADH dehydrogenase 1 alpha subcomplex, 10",AF087661,2.1
same,"Ratio peptide treated:control, potassium voltage-gated channel KQT-like subfamily member 4",AF105202,3.9
same,"Ratio peptide treated:control, FYN-binding protein",AF198052,3.3
same,"Ratio peptide treated:control, c-Cbl-interacting protein",AF230904,2.4
same,"Ratio peptide treated:control, hypothetical protein FLJ20070",AK000077,3.4
same,"Ratio peptide treated:control, hypothetical protein FLJ20495",AK000502,3.5
same,"Ratio peptide treated:control, Unknown",AK001843,8.2
same,"Ratio peptide treated:control, peroxisome proliferative activated receptor delta",AL022721,0.46
same,"Ratio peptide treated:control, proteasome 26S subunit non-ATPase, 10",AL031177,0.32
same,"Ratio peptide treated:control, Unknown",AL031864,2.9
same,"Ratio peptide treated:control, Unknown",AL049263,0.06
same,"Ratio peptide treated:control, DKFZP586B2420 protein",AL050143,5.9
same,"Ratio peptide treated:control, Unknown",AL050370,0.38
same,"Ratio peptide treated:control, Unknown",AL109678,5.6
same,"Ratio peptide treated:control, Unknown",AL117643,2.7
same,"Ratio peptide treated:control, eukaryotic translation initiation factor 4A, isoform 2",AL137681,3.4
same,"Ratio peptide treated:control, Unknown",AL137715,4.4
same,"Ratio peptide treated:control, proteasome subunit alpha type, 4",D00763,0.49
same,"Ratio peptide treated:control, proteasome 26S subunit ATPase, 2",D11094,0.49
same,"Ratio peptide treated:control, defender against cell death 1",D15057,0.46
same,"Ratio peptide treated:control, proteasome subunit beta type, 4",D26600,0.29
same,"Ratio peptide treated:control, proteasome subunit beta type, 5",D29011,0.33
same,"Ratio peptide treated:control, proteasome 26S subunit non-ATPase 8",D38047,0.28
same,"Ratio peptide treated:control, proteasome subunit beta type 7",D38048,0.22
same,"Ratio peptide treated:control, KIAA0152 gene product",D63486,0.17
same,"Ratio peptide treated:control, Cryptochrome 1",D83702,3.8
same,"Ratio peptide treated:control, TGFB1-induced anti-apoptotic factor 1",D86970,0.19
same,"Ratio peptide treated:control, MAP kinase kinase 3",D87116,0.37
same,"Ratio peptide treated:control, proteasome 26S subunit ATPase, 1",L02426,0.49
same,"Ratio peptide treated:control, MAP kinase kinase 1",L11284,2.4
same,"Ratio peptide treated:control, MAP kinase 14",L35263,2.2
same,"Ratio peptide treated:control, interferon receptor 2",L42243,2.5
same,"Ratio peptide treated:control, IL-1 receptor-associated kinase 1",L76191,0.45
same,"Ratio peptide treated:control, LINE retrotransposable element 1",M22333,4.0
same,"Ratio peptide treated:control, TNF receptor superfamily member 1B",M32315,0.29
same,"Ratio peptide treated:control, proteasome 26S subunit, ATPase, 3",M34079,0.35
same,"Ratio peptide treated:control, proteasome subunit beta type, 6",M34079,0.38
same,"Ratio peptide treated:control, lymphocyte antigen",M38056,3.2
same,"Ratio peptide treated:control, H1 histone family, member 4",M60748,3.0
same,"Ratio peptide treated:control, Cathepsin D",M63138,0.36
same,"Ratio peptide treated:control, protein kinase, cAMP-dependent, regulatory, type I, beta",M65066,2.9
same,"Ratio peptide treated:control, TGF, beta-induced,",M77349,0.37
same,"Ratio peptide treated:control, S100 calcium-binding protein A4",M80563,0.31
same,"Ratio peptide treated:control, cathepsin E",M84424,2.7
same,"Ratio peptide treated:control, actinin, alpha 3",M86407,6.9
same,"Ratio peptide treated:control, interferon regulatory factor 2",NM 002199,2.0
same,"Ratio peptide treated:control, calumenin",NM_001219,2.9
same,"Ratio peptide treated:control, glutathione peroxidase 3",NM_002084,0.15
same,"Ratio peptide treated:control, LPS-induced TNF-alpha factor",NM_004862,0.41
same,"Ratio peptide treated:control, bone morphogenetic protein 1",NM_006129,2.1
same,"Ratio peptide treated:control, MAP kinase kinase kinase 2",NM_006609,0.32
same,"Ratio peptide treated:control, SDF receptor 1",NM_012428,0.35
same,"Ratio peptide treated:control, TERF1 (TRF1)-interacting nuclear factor 2",NM_012461,4.2
same,"Ratio peptide treated:control, nuclear receptor binding protein",NM_013392,0.38
same,"Ratio peptide treated:control, cyclin-dependent kinase inhibitor 1B",S76988,2.2
same,"Ratio peptide treated:control, POU domain, class 4, transcription factor 2",U06233,2.8
same,"Ratio peptide treated:control, MAP kinase kinase kinase kinase 2",U07349,0.46
same,"Ratio peptide treated:control, MAP kinase-activated protein kinase 2",U12779,0.34
same,"Ratio peptide treated:control, caspase 3",U13737,0.35
same,"Ratio peptide treated:control, MAP kinase kinase 5",U25265,0.44
same,"Ratio peptide treated:control, E2F transcription factor 5, p130-binding",U31556,3.5
same,"Ratio peptide treated:control, TNF superfamily member 10",U37518,0.46
same,"Ratio peptide treated:control, integrin-linked kinase",U40282,0.13
same,"Ratio peptide treated:control, guanine nucleotide binding protein, gamma transducing activity polypeptide 1",U41492,3.3
same,"Ratio peptide treated:control, mucosal vascular addressin cell adhesion molecule 1",U43628,3.2
same,"Ratio peptide treated:control, 1-acylglycerol-3-phosphate O-acyltransferase 1",U56417,4.0
same,"Ratio peptide treated:control, caspase 7",U67319,0.49
same,"Ratio peptide treated:control, apoptosis inhibitor 4",U75285,4.2
same,"Ratio peptide treated:control, TNF receptor superfamily, member 14",U81232,0.26
same,"Ratio peptide treated:control, bone morphogenetic protein receptor, type IB",U89326,2.1
same,"Ratio peptide treated:control, transferrin receptor",X01060,0.42
same,"Ratio peptide treated:control, protease inhibitor 1 alpha-1-antitrypsin",X01683,0.40
same,"Ratio peptide treated:control, Cathepsin L",X12451,0.44
same,"Ratio peptide treated:control, cytochrome c oxidase subunit Vic",X13238,0.30
same,"Ratio peptide treated:control, cathepsin H",X16832,0.47
same,"Ratio peptide treated:control, protein kinase C, alpha",X52479,2.4
same,"Ratio peptide treated:control, glycoprotein IX",X52997,3.4
same,"Ratio peptide treated:control, glypican 1",X54232,3.2
same,"Ratio peptide treated:control, jun D proto-oncogene",X56681,0.35
same,"Ratio peptide treated:control, proteasome subunit alpha type, 6",X59417,0.31
same,"Ratio peptide treated:control, Sp3 transcription factor",X68560,3.6
same,"Ratio peptide treated:control, Vacuolar proton-ATPase, subunit D; V-ATPase, subunit D",X71490,4.0
same,"Ratio peptide treated:control, chymotrypsin-like protease",X71877,2.9
same,"Ratio peptide treated:control, phosphorylase kinase alpha 1",X73874,7.1
same,"Ratio peptide treated:control, zinc finger protein 266",X78924,2.2
same,"Ratio peptide treated:control, ribosomal protein L11",X79234,0.32
same,"Ratio peptide treated:control, translational inhibitor protein p14.5",X95384,3.0
same,"Ratio peptide treated:control, c-fos induced growth factor",Y12864,2.3
same,"Ratio peptide treated:control, disintegrin protease",Y13323,0.21
same,"Ratio peptide treated:control, matrix metalloproteinase 7",Z11887,0.49
same,"Ratio peptide treated:control, proteoglycan 2",Z26248,9.3
same,"Ratio peptide treated:control, matrix metalloproteinase 14",Z48481,0.32
same,"Ratio peptide treated:control, POU domain, class 2, associating factor 1",Z49194,2.8
same,"Ratio peptide treated:control, protease inhibitor 12",Z81326,0.48
